Results as given in ChEMBL document CHEMBL1124638, “2,4-Diamino-5-benzylpyrimidines and analogues as antibacterial agents. 10. 2,4-Diamino-5-(6-quinolylmethyl)- and -[(tetrahydro-6-quinolyl)methyl]pyrimidine derivatives. Further specificity studies” (J Med Chem, 1989).
Converted amounts (≈) assume the structure as drawn.

Columns and labels:
[1] = test system: Bordetella bronchiseptica; assay: Comparative in vitro antibacterial activity with trimethoprim against Bordetella bronchiseptica CN385; format: functional
Citrobacter freundii [2] = assay: Comparative in vitro antibacterial activity with trimethoprim against Citrobacter freundii 2200/77; format: functional
Dihydrofolate reductase [3] = target: T1, Dihydrofolate reductase (Rattus norvegicus, UniProt Q920D2); assay: Inhibitory activity against dihydrofolate reductase in rat liver; conditions: read-out: I50
T1 sequence (Q920D2 whole entry): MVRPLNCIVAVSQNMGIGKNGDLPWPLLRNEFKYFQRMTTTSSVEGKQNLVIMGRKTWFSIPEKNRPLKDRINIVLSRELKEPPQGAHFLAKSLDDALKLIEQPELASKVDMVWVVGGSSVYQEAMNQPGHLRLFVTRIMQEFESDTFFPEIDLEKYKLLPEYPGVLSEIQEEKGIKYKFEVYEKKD

Dihydrofolate reductase [4] = target: Dihydrofolate reductase (Neisseria gonorrhoeae, UniProt P04174); assay: Inhibitory activity against Dihydrofolate reductase in Neisseria gonorrhoeae; conditions: read-out: I50
Escherichia coli = assay: Comparative in vitro antibacterial activity with trimethoprim against Escherichia coli CN314; format: functional
Klebsiella aerogenes = assay: Comparative in vitro antibacterial activity with trimethoprim against Enterobacter aerogenes 2200/86; format: functional
[5] = test system: Mycolicibacterium smegmatis; assay: Comparative in vitro antibacterial activity with trimethoprim against Mycobacterium smegmatis S 3254; format: functional
Proteus mirabilis = assay: Comparative in vitro antibacterial activity with trimethoprim against Proteus mirabilis S2409; format: functional
Proteus vulgaris = assay: Comparative in vitro antibacterial activity with trimethoprim against Proteus vulgaris CN329; format: functional
[6] = Comparative in vitro antibacterial activity with trimethoprim against Salmonella typhi CN512; format: functional, salmonella typhosa
Shigella flexneri = assay: Comparative in vitro antibacterial activity with trimethoprim against Shigella flexneri CN6007; format: functional
Serratia marcescens = assay: Comparative in vitro antibacterial activity with trimethoprim against Serratia marcescens CN2398; format: functional
Salmonella typhimurium = assay: Comparative in vitro antibacterial activity with trimethoprim against Salmonella Typhimurium S 8587; format: functional, Salmonella enterica subsp. enterica serovar Typhimurium; conditions: Salmonella enterica
Streptococcus pyogenes = assay: Comparative in vitro antibacterial activity of compound with trimethoprim against Streptococcus pyogenes CN10; format: functional
Staphylococcus aureus = assay: Comparative in vitro antibacterial activity with trimethoprim against Staphylococcus aureus CN491; format: functional
Enterococcus faecalis = assay: Comparative in vitro antibacterial activity with trimethoprim against Streptococcus faecalis CN478; format: functional
Streptococcus agalactiae = assay: Comparative in vitro antibacterial activity with trimethoprim against Streptococcus agalactiae CN1143; format: functional
Vibrio cholerae = assay: Comparative in vitro antibacterial activity with trimethoprim against Vibrio cholerae ATCC 14035; format: functional
Pasteurella multocida = assay: Comparative in vitro antibacterial activity with trimethoprim against Pasteurella multocida ATCC 6587; format: functional
Klebsiella pneumoniae [7] = assay: Comparative in vitro antibacterial activity with trimethoprim against Klebsiella pneumoniae CN3632; format: functional
[8] = Dissociation constant at 20 degree C; format: physicochemical
Citrobacter freundii [9] = assay: Comparative in vitro antibacterial activity of compound with trimethoprim against Citrobacter freundii 2200/77; format: functional
Klebsiella pneumoniae [10] = assay: Comparative in vitro antibacterial activity of compound with trimethoprim against Klebsiella pneumoniae CN3632; format: functional

Sequence of Dihydrofolate reductase (Neisseria gonorrhoeae, UniProt P04174) (P04174 whole entry): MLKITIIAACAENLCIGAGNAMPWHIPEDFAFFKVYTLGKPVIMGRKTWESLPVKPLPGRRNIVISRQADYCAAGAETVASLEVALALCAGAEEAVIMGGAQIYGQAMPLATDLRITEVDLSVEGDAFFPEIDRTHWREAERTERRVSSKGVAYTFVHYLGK

COc1cc(Cc2cnc(N)nc2N)cc2c1NCCC2
MIC [1]: 1 µg/mL (≈ 3.5 µM) | MIC (Citrobacter freundii [2]): 10 µg/mL (≈ 35 µM) | IC50 (Dihydrofolate reductase [3]): 76 µM | IC50 (Dihydrofolate reductase [4]): 0.51 µM | MIC (Escherichia coli): 10 µg/mL (≈ 35 µM) | MIC (Klebsiella aerogenes): 3 µg/mL (≈ 10.5 µM) | MIC [5]: 1 µg/mL (≈ 3.5 µM) | MIC (Proteus mirabilis): 3 µg/mL (≈ 10.5 µM) | MIC (Proteus vulgaris): 3 µg/mL (≈ 10.5 µM) | MIC [6]: 3 µg/mL (≈ 10.5 µM) | MIC (Shigella flexneri): 10 µg/mL (≈ 35 µM) | MIC (Serratia marcescens): 3 µg/mL (≈ 10.5 µM) | MIC (Salmonella typhimurium): 3 µg/mL (≈ 10.5 µM) | MIC (Streptococcus pyogenes): 3 µg/mL (≈ 10.5 µM) | MIC (Staphylococcus aureus): 3 µg/mL (≈ 10.5 µM) | MIC (Enterococcus faecalis): 3 µg/mL (≈ 10.5 µM) | MIC (Streptococcus agalactiae): 3 µg/mL (≈ 10.5 µM) | MIC (Vibrio cholerae): 1 µg/mL (≈ 3.5 µM) | MIC (Pasteurella multocida): 3 µg/mL (≈ 10.5 µM) | MIC (Klebsiella pneumoniae [7]): 3 µg/mL (≈ 10.5 µM)

COc1cccc2c1N(C)CCC2C (stereo unspecified)
pKa [8]: 6.51

COCCOc1cc(Cc2cnc(N)nc2N)cc2c1NCCC2
MIC [1]: 30 µg/mL (≈ 91.1 µM) | MIC (Citrobacter freundii [9]): 100 µg/mL (≈ 304 µM) | IC50 (Dihydrofolate reductase [3]): 170 µM | IC50 (Dihydrofolate reductase [4]): 0.53 µM | MIC (Escherichia coli): 100 µg/mL (≈ 304 µM) | MIC (Klebsiella aerogenes): 100 µg/mL (≈ 304 µM) | MIC (Klebsiella pneumoniae [10]): 100 µg/mL (≈ 304 µM) | MIC [5]: 3 µg/mL (≈ 9.11 µM) | MIC (Proteus mirabilis): > 30 µg/mL | MIC (Proteus vulgaris): 100 µg/mL (≈ 304 µM) | MIC [6]: 100 µg/mL (≈ 304 µM) | MIC (Shigella flexneri): 100 µg/mL (≈ 304 µM) | MIC (Serratia marcescens): > 10 µg/mL | MIC (Salmonella typhimurium): 100 µg/mL (≈ 304 µM) | MIC (Streptococcus pyogenes): 3 µg/mL (≈ 9.11 µM) | MIC (Staphylococcus aureus): 10 µg/mL (≈ 30.4 µM) | MIC (Enterococcus faecalis): 3 µg/mL (≈ 9.11 µM) | MIC (Streptococcus agalactiae): 10 µg/mL (≈ 30.4 µM) | MIC (Vibrio cholerae): 10 µg/mL (≈ 30.4 µM) | MIC (Pasteurella multocida): 30 µg/mL (≈ 91.1 µM)
